Measured values from PubChem BioAssay (NCI).
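Compound exposure: 48 hours, 5 concentrations, 96-well plates. TGI marks complete inhibition of growth.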

Columns and labels:
Experiment in all cases: NCI anticancer screen, dose series, 48 h
[1] = test system: HT29 colon
[2] = test system: ACHN renal
[3] = test system: OVCAR-5 ovarian
[4] = test system: OVCAR-4 ovarian
[5] = test system: SR leukemia
[6] = test system: OVCAR-8 ovarian
[7] = test system: A498 renal
[8] = test system: NCI-H522 lung
[9] = test system: COLO 205 colon
[10] = test system: SN12C renal

Row | SMILES | TGI [1] [µM] | TGI [2] [µM] | TGI [3] [µM] | TGI [4] [µM] | TGI [5] [µM] | TGI [6] [µM] | TGI [7] [µM] | TGI [8] [µM] | TGI [9] [µM] | TGI [10] [µM]
1 | Fc1cc(C2=Nn3c(COc4ccccc4Cl)nnc3S/C2=C\c2ccc(Cl)cc2)c(Cl)cc1Cl | > 100 | 39.1 | > 100 | 35.9 | > 100 | > 100 | 29.7 | 22.6 |  | 
2 | COC(=O)c1cc2c(c(C(=O)OC)c1)CCC2 | > 100 | > 100 | > 100 | > 100 | 86.8 | > 100 | > 100 | > 100 |  | 
3 | Cc1cc(N(CCC#N)CCC#N)ccc1/C(N=Nc1ccc([N+](=O)[O-])cc1)=N\NC(=O)c1cc(Cl)ccc1O | > 100 | > 100 | > 100 | > 100 | > 100 | 63 | 94.5 | 23.9 | 54.2 | > 100
4 | Cc1ccc(S(=O)(=O)n2cc(C=O)c(-c3cn(S(=O)(=O)c4ccc(C)cc4)cc3-c3cn(S(=O)(=O)c4ccc(C)cc4)cc3C=O)c2)cc1 | > 100 |  | > 100 |  | > 100 | > 100 | > 100 | > 100 | > 100 | > 100
5 | C=C1C(C(=O)OC)[C@H]1C(=O)OC (stereo partly specified) | > 100 | > 100 | > 100 | > 100 | > 100 | > 100 | > 100 | > 100 | > 100 | > 100
6 | COC(=O)c1ccc(NCc2cc(OC)ccc2OC)cc1 | > 100 | > 100 | > 100 | > 100 | > 100 | > 100 | 78.8 | > 100 | > 100 | 
7 | CC(=O)Nc1nc(C)c(S(=O)(=O)NC(=O)NC2NC(=O)NC2=O)s1 (stereo unspecified) | > 100 | > 100 | > 100 | > 100 | > 100 | > 100 | > 100 | > 100 | > 100 | > 100
8 | NC(=S)N1N=C2CCCCCC[C@@H]2[C@H]1c1ccccc1 | > 100 | > 100 | > 100 |  |  | > 100 | > 100 | 82.9 | > 100 | > 100
9 | COc1ccc(C(=O)/C=C/c2ccc(OCCCCCCCCCCOc3ccc(/C=C/C(=O)c4ccc(OC)cc4)cc3)cc2)cc1 | > 100 | > 100 | > 100 | > 100 | > 100 | > 100 |  |  | > 100 | > 100
10 | O=P1(c2ccccc2)C(c2ccccc2)CCC1c1ccccc1 (stereo unspecified) |  |  |  |  |  | > 100 |  | > 100 | > 100 | > 100
11 | CCOP(=O)(CC(=O)C1CC1)OCC | > 100 | > 100 | > 100 | > 100 | > 100 | > 100 |  | > 100 | > 100 | > 100
12 | COC(=O)CCc1ccc(CCC(=O)OC)cc1 | > 100 | > 100 | > 100 | > 100 | > 100 | > 100 | > 100 | > 100 |  | 
13 | CC1CCN(C(C)C)P(=S)(Cc2ccccc2)O1 (stereo unspecified) | > 100 | > 100 | > 100 | > 100 | > 100 | > 100 |  |  | > 100 | 
14 | CN(O)C(=O)CCC(NC(=O)CCC(N)C(=O)O)C(=O)NCC(=O)O (stereo unspecified) | > 100 | > 100 | > 100 | > 100 |  | > 100 | > 100 | > 100 | > 100 | > 100
15 | COc1ccc2[nH]cc(CCNC(=O)[C@H](Cc3ccc(O)cc3)NC(=O)[C@@H](NCC(F)(F)F)C(C)C)c2c1 | > 100 | > 100 | > 100 | > 100 | > 100 | > 100 |  | > 100 | > 100 | > 100
16 | O=C(OC1=CCN(Br)C1=O)C1=C(O)C(=O)N(Br)C1 |  | > 100 | 52.8 | > 100 | 52.3 | > 100 | > 100 | 31.4 | 54.4 | 31
17 | CCOC(=O)C1(C(=O)OCC)C(C(C)(C)C)=C(C)c2ccccc21 | 23.8 | 28 | 31.4 | 45.3 | > 100 | 66.1 |  | 22.2 | 26.8 | 28.7
18 | COc1cc(C2C=C(c3ccccc3)Oc3cc4c(cc32)OCO4)cc(OC)c1OC (stereo unspecified) | > 18.3 | > 100 | > 100 | > 100 | > 100 | > 32.6 | > 100 |  | > 17.1 | > 96.3
19 | CCOC(=O)CNC(=O)C(CCC(=O)N(C)O)NC(=O)CCC(N)C(=O)O (stereo unspecified) | > 100 | > 100 | > 100 | > 100 |  | > 100 | > 100 | > 100 | > 100 | > 100
20 | CCOC(=O)c1c(N)sc2c1CC(C)CC2 (stereo unspecified) | 50.3 | > 100 | > 100 | > 100 | 86.8 | > 100 |  | 40.5 | 89.5 | > 100
21 | COC(=O)C(Cc1c[nH]c2ccccc12)NC(=O)C(Cc1cnc[nH]1)NC(=O)C1CCC(=O)N1C(=O)OCc1ccccc1 (stereo unspecified) | > 100 | > 100 | > 100 |  | > 100 | > 100 | 68.3 |  | > 100 | 
22 | O=c1[nH]c(NCc2cccnc2)nc2nc[nH]c12 | > 100 | > 100 | > 100 | > 100 |  | > 100 | > 100 | > 100 | > 100 | > 100
23 | COc1ccc(/C=C2\N=C(N3CCCC(CO)C3)NC2=O)cc1 (stereo unspecified) | > 100 | > 100 | > 100 | > 100 | > 100 | > 100 |  | > 100 | > 100 | > 100
24 | Cc1nc(OCc2ccccc2)c2ncn(CCO)c2n1 | > 100 | > 100 | > 100 | > 100 | > 100 |  | > 100 | > 100 | > 100 | > 100

Row | SMILES | TGI [1] [µM] | TGI [2] [µM] | TGI [3] [µM] | TGI [4] [µM] | TGI [5] [µM] | TGI [6] [µM] | TGI [7] [µM] | TGI [8] [µM] | TGI [9] [µM] | TGI [10] [µM]
25 | O=[N+]([O-])c1ccc(-c2csc(N=Nc3c(O)[nH]c4ccccc34)n2)cc1 | 76.6 | > 100 | 45.4 | > 100 |  | 70 |  |  | > 100 | 96.5
26 | CC(C)(C)c1ccc2c(c1)OP1(Oc3c(Cl)cc(Cl)c4cccnc34)(O2)Oc2ccc(C(C)(C)C)cc2O1 | 19.5 |  | 27.5 | 23.3 |  | 45.8 | 28.7 | 8.45 | 31.3 | 30.8
27 | S=P1(Sc2ccccc2)Oc2ccc3ccccc3c2-c2c(ccc3ccccc23)O1 | > 100 |  | > 100 | > 100 |  | > 100 | > 100 | > 100 | > 100 | > 100
28 | O=C1CCCCCCC2=C1C(Sc1ccccc1)CC2 (stereo unspecified) | 83.8 | > 100 |  | > 100 | 79.3 | 54 |  | 41.4 | > 100 | 42.3
29 | O=C(O)/C=C/c1ccc(Oc2ccccc2C(=O)O)o1 | > 10 | > 10 |  | > 10 | > 10 | > 10 |  | > 10 | > 10 | > 10
30 | Cc1c(NC(=S)Nc2ccc([N+](=O)[O-])cc2)c(=O)n(-c2ccccc2)n1C | > 100 | > 100 | > 100 |  | > 100 | > 100 | > 100 | > 100 | > 100 | 
31 | CCCCSC1=N/C(=C\c2ccccc2O)C(=O)N1 | > 100 | > 100 | > 100 | > 100 |  | > 100 | > 100 | > 100 | > 100 | > 100
32 | COC(=O)C1=C(C)NC(=O)N2[C@@H](CCOCc3ccccc3)CC[C@@H]12 | > 50 | > 50 | > 50 | > 50 | > 50 | > 50 | > 50 | > 50 | > 50 | 
33 | CCOC(=O)C12CCC(=O)N1N(C)c1ncccc1N2 (stereo unspecified) | > 100 | > 100 | > 100 | > 100 | > 100 | > 100 | > 100 | > 100 | > 100 | 
34 | Cn1c(-c2ccc(C=O)o2)ccc1-c1ccc(C=O)o1 | > 100 | > 100 | > 100 | > 100 | > 100 | > 100 | > 100 |  | > 100 | > 100
35 | NCC(=O)Nc1ccccc1 | > 100 | > 100 | > 100 | > 100 | > 100 | > 100 | > 100 | > 100 |  | > 100
36 | CCOC(=O)C(NC(=O)c1cccc(Cl)c1)(Nc1ccc(S(=O)(=O)Nc2cc(C)on2)cc1)C(F)(F)F (stereo unspecified) | > 100 | > 100 | > 100 | > 100 |  | > 100 | > 100 | > 100 | > 100 | > 100
37 | CN1CCC2(CC1)SSC1(CCN(C)CC1)S2 | > 100 | > 100 | > 100 | > 100 | > 100 | > 100 |  |  | > 100 | > 100
38 | Nc1ncnc2c1ncn2[C@H]1C=C[C@@H](NO)C1 |  | > 100 | > 100 | > 100 | > 100 | > 100 | > 100 | > 100 | > 100 | > 100
39 | CC1C(C)(C)C23CC12C1(OCCO1)C3Br (stereo unspecified) | > 100 | > 100 | > 100 | > 100 | > 100 | > 100 | > 100 |  | > 100 | > 100
40 | Cc1ccc2c(c1)nc1n2C(c2c(F)cccc2F)SC1 (stereo unspecified) | > 100 | > 100 | > 100 | > 100 | 87.9 | > 100 |  | > 100 | > 100 | > 100
41 | Cc1nc2c(c(N3CCN(C)CC3)n1)Cc1ccccc1-2 | > 100 | > 100 | > 100 |  |  | > 100 |  | 56.4 | > 100 | 
42 | O=C1C(Cl)=C(Cl)C(=O)C(CCNc2nccs2)=C1Cl | > 100 | 63.2 | > 100 | > 100 | > 100 | 87.3 |  | 51.3 | > 100 | 73.2
43 | COC(=O)C1=CO[C@@H](C)[C@@H]2Cn3ccc4c5ccccc5nc-4c3C[C@H]12 | > 100 | > 100 | > 100 | > 100 |  | > 100 | > 100 | > 100 | > 100 | > 100
44 | CC(=O)OCc1c(O)c2c([nH]c1=O)CCc1ccccc1-2 | 311 | > 350 |  |  | > 350 | 291 |  | 84.6 | 112 | 155
45 | Nn1c(CCCCCCCCc2nnc(-c3c(O)ccc4ccccc34)n2N)nnc1-c1c(O)ccc2ccccc12 | > 100 | > 100 | > 100 | > 100 | > 100 | > 100 |  | > 100 | > 100 | > 100
46 | S=C(NCc1ccccc1)Nc1sc(=NCc2ccccc2)nc2sc3c(c12)CCN(N1CCc2c(sc4nc(=NCc5ccccc5)sc(NC(=S)NCc5ccccc5)c24)C1)C3 | 43.3 | > 96.4 | > 85.2 | > 91 |  | > 100 | > 67.6 | > 100 | > 100 | > 52.8
47 | COC(=O)C1CCC(=O)N1C(c1ccc(OC)cc1)c1cc(OC)c(OC)c(OC)c1 (stereo unspecified) |  | > 100 | > 100 | > 100 |  | > 100 |  | 0.212 | 0.802 | > 100
